# Results published in patent publication US8592455B2 (priority 2008, dated 2013).
# Target: Pim1 kinase (Homo sapiens (Human), UniProt P11309)
# Test: biochemical
# Pim1 kinase, sequence (P11309 whole entry): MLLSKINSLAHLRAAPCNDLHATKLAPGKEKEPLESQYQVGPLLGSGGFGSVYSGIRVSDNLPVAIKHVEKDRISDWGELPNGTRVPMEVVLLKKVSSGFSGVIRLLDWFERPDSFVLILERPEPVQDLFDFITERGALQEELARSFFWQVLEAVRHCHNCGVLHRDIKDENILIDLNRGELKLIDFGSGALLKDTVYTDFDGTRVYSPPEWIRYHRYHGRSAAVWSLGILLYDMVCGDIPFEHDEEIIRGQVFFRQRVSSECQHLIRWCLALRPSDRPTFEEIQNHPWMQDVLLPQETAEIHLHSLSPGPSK
compound,measurement,value
"Nc1ccc(-c2c(F)cccc2F)nc1C(=O)Nc1cnccc1[C@@H]1CC[C@H](O)[C@H](N)C1 (stereo in doubt) [Example 102, 3-amino-N-(4-(3-amino-4-hydroxycyclohexyl)pyridin-3-yl)-6-(2,6-difluorophenyl)picolinamide]",IC50,1 nM
